For 18 molecules, IC50 results are on record in patent publication US9315503B2, “Kinase inhibitors” (CHIESI FARMACEUTICI S.p.A., priority 2011, dated 2016).

Structures are written as SMILES.

In assay [1] the target is T1, p38alpha (Homo sapiens, UniProt Q16539).
T1 construct: purchased Invitrogen PV3304
In words: P38Alpha enzyme inhibition assay (Alphascreen kinase activity assay). The class given is biochemical. Particulars: 100 pM p38alpha, 250 μM ATP, 2 hours pre-incubation at 25° C., read-out: p38α inhibition (IC50 values). A digest of the protocol:
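AlphaScreen read-out: after an EDTA stop, an anti-phospho-ATF2 antibody with Protein A acceptor and donor beads measured substrate phosphorylation. Compounds sat 2 h at 25°C with 100 pM p38α and 0.3 µg/ml ATF-2 fusion protein (pH 7.5, 1% DMSO) before 250 µM ATP was added for 1 h. IC50 from dose-response.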
Background: Alpha assays give light when donor and acceptor beads are brought close together.

For assay [2], the system named is LPS-stimulated TNFα release from PBMCs. In words: LPS-stimulated PBMC TNFα release assay. The class given is cell-based. Particulars: inhibition of TNFα release, human PBMCs, LPS 10 ng/ml, 18 h, ELISA, read-out: p38α inhibition (IC50 values). As for the experimental part:
LPS-Stimulated PBMC TNFα Release Assay.
Peripheral Blood Mononuclear Cells (PBMCs) were isolated from healthy human volunteer blood using a standard density gradient centrifugation technique. Citrated blood was placed onto Histopaque™ and centrifuged. The PBMCs were removed from the density gradient interface and washed in phosphate buffered saline (PBS). The PBMCs were suspended in RPMI 1640 medium (without serum), dispensed into a 96-well plate and incubated at 37° C. for 3 h in a humidified incubator. After incubation, the medium was replaced (with medium containing 1% foetal bovine serum) and the plate incubated at 37° C., for 1 h, in the presence of test compound or the appropriate vehicle. LPS (10 ng/ml), or an appropriate vehicle control, was then added to the cells and the plate returned to the incubator for 18 h. Cell-free supernatants were removed and assayed for TNFα levels using an ELISA kit from R&D Systems.
A dose response curve to each test compound was performed and the effect of compound in each experiment was expressed as a percentage inhibition of the control TNFα release. Dose response curves were plotted and compound potency (IC50) was determined. Compounds were tested in at least three separate experiments.
(ELISA stands for enzyme-linked immunosorbent assay.)

As usually defined, the IC50 is the concentration needed to halve the response being measured.

T1 sequence (Q16539 whole entry): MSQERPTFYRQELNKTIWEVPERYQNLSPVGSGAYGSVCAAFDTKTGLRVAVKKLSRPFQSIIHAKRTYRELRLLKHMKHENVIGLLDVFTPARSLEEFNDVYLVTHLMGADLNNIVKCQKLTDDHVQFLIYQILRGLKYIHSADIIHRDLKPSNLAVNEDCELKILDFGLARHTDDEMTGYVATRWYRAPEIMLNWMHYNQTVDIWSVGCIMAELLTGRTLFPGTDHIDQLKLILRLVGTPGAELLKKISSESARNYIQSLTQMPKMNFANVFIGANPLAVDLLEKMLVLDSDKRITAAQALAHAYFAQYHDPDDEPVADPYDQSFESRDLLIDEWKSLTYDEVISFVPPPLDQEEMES

Consider `Cc1ccc(-n2nc(C(C)(C)C)cc2NC(=O)N[C@H]2CC[C@@H](Oc3ccc(C#N)nc3)c3ccccc32)cc1` [Example 9, 1-(5-tert-Butyl-2-p-tolyl-2H-pyrazol-3-yl)-3-[(1S,4R)-4-(6-cyano-pyridin-3-yloxy)-1,2,3,4-tetrahydro-naphthalen-1-yl]-urea], for which the IC50 in assay [1] is less than 0.01 µM; in assay [2] it was 0.1 to 1 µM.

For the molecule `COCC(=O)Nc1cc(O[C@H]2CC[C@H](NC(=O)Nc3cc(C(C)(C)C)nn3-c3ccc(C)cc3)c3ccccc32)ccn1` [Example 10, N-(4-{(1S,4S)-4-[3-(5-tert-Butyl-2-p-tolyl-2H-pyrazol-3-yl)-ureido]-1,2,3,4-tetrahydro-naphthalen-1-yloxy}-pyridin-2-yl)-2-methoxy-acetamide], the half-inhibitory concentration (IC50) in assay [1] and in assay [2] was less than 0.01 µM throughout.

With `Cc1ccc(-n2nc(C(C)(C)C)cc2NC(=O)N[C@H]2CC[C@@H](Oc3ccc4cnn(CCO)c4c3)c3ccccc32)cc1` [Example 11, 1-(5-tert-Butyl-2-p-tolyl-2H-pyrazol-3-yl)-3-{(1S,4R)-4-[1-(2-hydroxy-ethyl)-1H-indazol-6-yloxy]-1,2,3,4-tetrahydro-naphthalen-1-yl}-urea], the IC50 in assay [1] is less than 0.01 µM; in assay [2] it was 0.01 to 0.1 µM.

Turning to `Cc1ccc(-n2nc(C(C)(C)C)cc2NC(=O)N[C@H]2CC[C@@H](Oc3ccc4nnc([C@H]5CCCN5)n4c3)c3ccccc32)cc1` [Example 12, 1-(5-tert-Butyl-2-p-tolyl-2H-pyrazol-3-yl)-3-[(1S,4R)-4-((R)-3-pyrrolidin-2-yl-[1,2,4]triazolo[4,3-a]pyridin-6-yloxy)-1,2,3,4-tetrahydro-naphthalen-1-yl]-urea], the concentration for half-maximal inhibition (IC50) in assay [1] and in assay [2] was less than 0.01 µM in each case.

Consider `COCC(=O)Nc1cc(O[C@@H]2CC[C@H](NC(=O)Nc3cc(C(C)(C)C)nn3-c3ccc(C)cc3)c3ccccc32)ccn1` [Example 13, N-(4-{(1R,4S)-4-[3-(5-tert-Butyl-2-p-tolyl-2H-pyrazol-3-yl)-ureido]-1,2,3,4-tetrahydro-naphthalen-1-yloxy}-pyridin-2-yl)-2-methoxy-acetamide], for which the IC50 in assay [1] and in assay [2] was less than 0.01 µM throughout.

On to `Cc1ccc(-n2nc(C(C)(C)C)cc2NC(=O)N[C@H]2CC[C@@H](Oc3ccc4nnc(-c5ccc(CN6CCOCC6)cc5)n4c3)c3ccccc32)cc1` [Example 18, 1-(5-tert-Butyl-2-p-tolyl-2H-pyrazol-3-yl)-3-{(1S,4R)-4-[3-(4-morpholin-4-ylmethyl-phenyl)-[1,2,4]triazolo[4,3-a]pyridin-6-yloxy]-1,2,3,4-tetrahydro-naphthalen-1-yl]-urea], for which the half-maximal inhibitory concentration (IC50) in assay [1] and in assay [2] was less than 0.01 µM throughout.

Take `Cc1ccc(-n2nc(C(C)(C)C)cc2NC(=O)N[C@H]2CC[C@@H](Oc3ccc4nnc(-c5cccc(CN6CCOCC6)c5)n4c3)c3ccccc32)cc1` [Example 19, 1-(5-tert-Butyl-2-p-tolyl-2H-pyrazol-3-yl)-3-{(1S,4R)-4-[3-(3-morpholin-4-ylmethyl-phenyl)-[1,2,4]triazolo[4,3-a]pyridin-6-yloxy]-1,2,3,4-tetrahydro-naphthalen-1-yl}-urea]: the IC50 in assay [1] and in assay [2] was less than 0.01 µM each time.

With `Cc1ccc(-n2nc(C(C)(C)C)cc2NC(=O)N[C@H]2CC[C@@H](Oc3ccc4nnc(-c5ccccc5CN5CCOCC5)n4c3)c3ccccc32)cc1` [Example 20, 1-(5-tert-Butyl-2-p-tolyl-2H-pyrazol-3-yl)-3-{(1S,4R)-4-[3-(2-morpholin-4-ylmethyl-phenyl)-[1,2,4]triazolo[4,3-a]pyridin-6-yloxy]-1,2,3,4-tetrahydro-naphthalen-1-yl}-urea], the concentration for half-maximal inhibition (IC50) in assay [1] and in assay [2] was less than 0.01 µM in each case.

Consider `Cc1ccc(-n2nc(C(C)(C)C)cc2NC(=O)N[C@H]2CC[C@@H](Oc3ccc(CN4CCOCC4)nc3)c3ccccc32)cc1` [Example 21, 1-(5-tert-Butyl-2-p-tolyl-2H-pyrazol-3-yl)-3-[(1S,4R)-4-(6-morpholin-4-ylmethyl-pyridin-3-yloxy)-1,2,3,4-tetrahydro-naphthalen-1-yl]-urea], for which the half-maximal inhibitory concentration (IC50) in assay [1] and in assay [2] was 0.01 to 0.1 µM each time.

As to `Cc1ccc(-n2nc(C(C)(C)C)cc2NC(=O)N[C@H]2CC[C@@H](Oc3ccc4nnc(CC5CCN(C)CC5)n4c3)c3ccccc32)cc1` [Example 22, 1-(5-tert-Butyl-2-p-tolyl-2H-pyrazol-3-yl)-3-{(1S,4R)-4-[3-(1-methyl-piperidin-4-ylmethyl)-[1,2,4]triazolo[4,3-a]pyridin-6-yloxy]-1,2,3,4-tetrahydro-naphthalen-1-yl}-urea], the figures for the IC50 in assay [1] and in assay [2] were less than 0.01 µM and 0.1 to 1 µM, respectively.

On to `Cc1ccc(-n2nc(C(C)(C)C)cc2NC(=O)N[C@H]2CC[C@@H](Oc3ccc4nnc(CC5CCN(CC(F)F)CC5)n4c3)c3ccccc32)cc1` [Example 23, 1-(5-tert-Butyl-2-p-tolyl-2H-pyrazol-3-yl)-3-((1S,4R)-4-{3-[1-(2,2-difluoro-ethyl)-piperidin-4-ylmethyl]-[1,2,4]triazolo[4,3-a]pyridin-6-yloxy}-1,2,3,4-tetrahydro-naphthalen-1-yl)-urea], for which the half-inhibitory concentration (IC50) in assay [1] and in assay [2] was less than 0.01 µM throughout.

For the molecule `Cc1ccc(-n2nc(C(C)(C)C)cc2NC(=O)N[C@H]2CC[C@@H](Oc3ccc4nnc(N5CCC(O)CC5)n4c3)c3ccccc32)cc1` [Example 24, 1-(5-tert-Butyl-2-p-tolyl-2H-pyrazol-3-yl)-3-[(1S,4R)-4-[3-(4-hydroxypiperidin-1-yl)-[1,2,4]triazolo[4,3-a]pyridine-6-yloxy]-1,2,3,4-tetrahydro-naphthalen-1-yl]-urea], the IC50 in assay [1] and in assay [2] was less than 0.01 µM in each case.

Regarding `Cc1ccc(-n2nc(C(C)(C)C)cc2NC(=O)N[C@H]2CC[C@@H](Oc3ccc4nnc(N(C)CCO)n4c3)c3ccccc32)cc1` [Example 25, 1-(5-tert-Butyl-2-p-tolyl-2H-pyrazol-3-yl)-3-[(1S,4R)-4-{3-[(2-hydroxy-ethyl)-methyl-amino]-[1,2,4]triazolo[4,3-a]pyridine-6-yloxy]-1,2,3,4-tetrahydro-naphthalen-1-yl]-urea], the IC50 in assay [1] and in assay [2] was less than 0.01 µM throughout.

For the molecule `Cc1ccc(-n2nc(C(C)(C)C)cc2NC(=O)N[C@H]2CC[C@@H](Oc3ccc4nnc(N5CC[C@H](O)C5)n4c3)c3ccccc32)cc1` [Example 26, 1-(5-tert-Butyl-2-p-tolyl-2H-pyrazol-3-yl)-3-{(1S,4R)-4-[3-((S)-3-hydroxy-pyrrolidin-1-yl)-[1,2,4]triazolo[4,3-a]pyridin-6-yloxy]-1,2,3,4-tetrahydro-naphthalen-1-yl}-urea], the IC50 in assay [1] and in assay [2] was less than 0.01 µM each time.

As to `Cc1ccc(-n2nc(C(C)(C)C)cc2NC(=O)N[C@H]2CC[C@@H](Oc3ccc4nnc(N5CCC[C@@H]5CO)n4c3)c3ccccc32)cc1` [Example 27, 1-(5-tert-Butyl-2-p-tolyl-2H-pyrazol-3-yl)-3-{(1S,4R)-4-[3-((R)-2-hydroxymethyl-pyrrolidin-1-yl)-[1,2,4]triazolo[4,3-a]pyridin-6-yloxy]-1,2,3,4-tetrahydro-naphthalen-1-yl}-urea], the IC50 in assay [1] and in assay [2] was less than 0.01 µM each time.

Regarding `Cc1ccc(-n2nc(C(C)(C)C)cc2NC(=O)N[C@H]2CC[C@@H](Oc3ccc4nnc(N5CCC[C@H]5CO)n4c3)c3ccccc32)cc1` [Example 28, 1-(5-tert-Butyl-2-p-tolyl-2H-pyrazol-3-yl)-3-{(1S,4R)-4-[3-((S)-2-hydroxymethyl-pyrrolidin-1-yl)-[1,2,4]triazolo[4,3-a]pyridin-6-yloxy]-1,2,3,4-tetrahydro-naphthalen-1-yl}-urea], the IC50 in assay [1] and in assay [2] was less than 0.01 µM throughout.

In the case of `CC(C)(C)c1cc(NC(=O)N[C@H]2CC[C@@H](Oc3ccc4nnc(N5CCCCC5)n4c3)c3ccccc32)n(-c2cccc(CO)c2)n1` [Example 29, 1-[5-tert-Butyl-2-(3-hydroxymethyl-phenyl)-2H-pyrazol-3-yl]-3-[(1S,4R)-4-(3-piperidin-1-yl-[1,2,4]triazolo[4,3-a]pyridin-6-yloxy)-1,2,3,4-tetrahydro-naphthalen-1-yl]-urea], the IC50 in assay [1] and in assay [2] was less than 0.01 µM each time.

On to `CCOC(=O)c1cccc(-n2nc(C(C)(C)C)cc2NC(=O)N[C@H]2CC[C@@H](Oc3ccc4nnc([C@@H]5CCCN5C)n4c3)c3ccccc32)c1` [Example 30, 3-[3-tert-Butyl-5-(3-{(1S,4R)-4-[3-((S)-1-methyl-pyrrolidin-2-yl)-[1,2,4]triazolo[4,3-a]pyridin-6-yloxy]-1,2,3,4-tetrahydro-naphthalen-1-yl}-ureido)-pyrazol-1-yl]-benzoic acid ethyl ester], for which the IC50 in assay [1] and in assay [2] was less than 0.01 µM each time.
